# Experimental data as given in patent publication US9073853B2, “Cycloalkane carboxylic acid derivatives as CXCR3 receptor antagonists” (Sanofi, priority 2011, dated 2015).
# Target: human CXCR3-A receptor (Homo sapiens (Human), UniProt P49682)
# Test: 125I-CXCL10 competition radioligand binding assay
# Conditions: displacement of 125I-CXCL10 from membranes of CHO cells expressing human recombinant CXCR3-A
# In short: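 Membranes from a recombinant cell line expressing human CXCR3-A (10-20 μg protein) were incubated with 125I-CXCL10 and test compound for 60 min at 25° C, then filtered onto PEI-soaked GF/B filters and gamma-counted. IC50 and Hill slope came from four-parameter nonlinear fitting of competition curves.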
# human CXCR3-A receptor, sequence (P49682 whole entry): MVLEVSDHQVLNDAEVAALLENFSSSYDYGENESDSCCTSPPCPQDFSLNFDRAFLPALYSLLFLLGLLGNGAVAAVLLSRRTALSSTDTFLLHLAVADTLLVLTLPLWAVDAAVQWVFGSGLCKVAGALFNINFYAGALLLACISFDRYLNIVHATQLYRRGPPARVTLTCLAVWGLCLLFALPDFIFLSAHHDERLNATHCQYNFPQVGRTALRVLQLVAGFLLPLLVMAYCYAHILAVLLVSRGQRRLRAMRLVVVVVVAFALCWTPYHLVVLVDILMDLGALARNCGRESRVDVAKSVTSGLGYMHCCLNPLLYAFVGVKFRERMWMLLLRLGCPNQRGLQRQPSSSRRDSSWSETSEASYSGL
row,Structure (SMILES),IC50
1,"COc1cc(CN(C[C@@H]2C[C@@H]2C(=O)O)C(C)c2ccc3c(c2)CCO3)ccc1OCCN1C(=O)CCC1=O (stereo partly drawn) [Example 114, (1S,2R)-2-[([1-(2,3-Dihydro-benzofuran-5-yl)-ethyl]-{4-[2-(2,5-dioxo-pyrrolidin-1-yl)-ethoxy]-3-methoxy-benzyl}-amino)-methyl]-cyclopropanecarboxylic acid]",180 nM
2,"CCC(c1ccc(Cl)cc1)N(Cc1ccc(OCCN2C(=O)CN(C)C2=O)c(C)c1)C[C@@H]1[C@@H](C(=O)O)C1(C)C (stereo partly drawn) [Example 115, (1R,3R)-3-[([1-(4-Chloro-phenyl)-propyl]-{3-methyl-4-[2-(3-methyl-2,5-dioxo-imidazolidin-1-yl)-ethoxy]-benzyl}-amino)-methyl]-2,2-dimethyl-cyclopropanecarboxylic acid]",244 nM
3,"CCC(c1ccc(Cl)cc1)N(Cc1ccc(OCCN2C(=O)CN(C)C2=O)c(OC)c1)C[C@H]1[C@H](C(=O)O)C1(C)C (stereo partly drawn) [Example 116, (1S,3S)-3-[([1-(4-Chloro-phenyl)-propyl]-{3-methoxy-4-[2-(3-methyl-2,5-dioxo-imidazolidin-1-yl)-ethoxy]-benzyl}-amino)-methyl]-2,2-dimethyl-cyclopropanecarboxylic acid]",160 nM
4,"CCC(c1ccc(Cl)cc1)N(Cc1ccc(OCCN2C(=O)CCC2=O)c(OC)c1)C[C@H]1[C@H](C(=O)O)C1(C)C (stereo partly drawn) [Example 117, (1S,3S)-3-[([1-(4-Chloro-phenyl)-propyl]-{4-[2-(2,5-dioxo-pyrrolidin-1-yl)-ethoxy]-3-methoxy-benzyl}-amino)-methyl]-2,2-dimethyl-cyclopropanecarboxylic acid]",71 nM
5,"CCC(c1ccc(Cl)cc1)N(Cc1ccc(OCCN2C(=O)CCC2=O)c(C)c1)C[C@@H]1[C@@H](C(=O)O)C1(C)C (stereo partly drawn) [Example 118, (1R,3R)-3-[([1-(4-Chloro-phenyl)-propyl]-{4-[2-(2,5-dioxo-pyrrolidin-1-yl)-ethoxy]-3-methyl-benzyl}-amino)-methyl]-2,2-dimethyl-cyclopropanecarboxylic acid]",190 nM
6,"COc1cc(CN(CC2(C(=O)O)CC2)C2CCc3cc(Cl)ccc32)ccc1OCCN1C(=O)CCC1=O (centres unmarked) [Example 119, 1-[((5-Chloro-indan-1-yl)-{4-[2-(2,5-dioxo-pyrrolidin-1-yl)-ethoxy]-3-methoxy-benzyl}-amino)-methyl]-cyclopropanecarboxylic acid]",3200 nM
7,"COc1cc(CN(C(C)c2ccc3c(c2)CCO3)[C@H]2C[C@H](C(=O)O)C2)ccc1OCCn1c(=O)ccn(C)c1=O (stereo partly drawn) [Example 120, trans-3-([1-(2,3-Dihydro-benzofuran-5-yl)-ethyl]-{3-methoxy-4-[2-(3-methyl-2,6-dioxo-3,6-dihydro-2H-pyrimidin-1-yl)-ethoxy]-benzyl}-amino)-cyclobutanecarboxylic acid]",2900 nM
8,"COc1cc(CN(C(C)c2ccc3c(c2)CCO3)[C@H]2C[C@@H](C(=O)O)C2)ccc1OCCn1c(=O)ccn(C)c1=O (stereo partly drawn) [Example 121, cis-3-([1-(2,3-Dihydro-benzofuran-5-yl)-ethyl]-{3-methoxy-4-[2-(3-methyl-2,6-dioxo-3,6-dihydro-2H-pyrimidin-1-yl)-ethoxy]-benzyl}-amino)-cyclobutanecarboxylic acid]",152 nM
9,"COc1cc(CN([C@H]2C[C@@H](C(=O)O)C2)[C@H](C)c2ccc3c(c2)CCO3)ccc1OCCn1c(=O)ccn(C)c1=O [Example 122, cis-3-([(R)-1-(2,3-Dihydro-benzofuran-5-yl)-ethyl]-{3-methoxy-4-[2-(3-methyl-2,6-dioxo-3,6-dihydro-2H-pyrimidin-1-yl)-ethoxy]-benzyl}-amino)-cyclobutanecarboxylic acid]",70 nM
10,"COc1cc(CN([C@H]2C[C@@H](C(=O)O)C2)[C@@H](C)c2ccc3c(c2)CCO3)ccc1OCCn1c(=O)ccn(C)c1=O [Example 123, cis-3-([(S)-1-(2,3-Dihydro-benzofuran-5-yl)-ethyl]-{3-methoxy-4-[2-(3-methyl-2,6-dioxo-3,6-dihydro-2H-pyrimidin-1-yl)-ethoxy]-benzyl}-amino)-cyclobutanecarboxylic acid]",7000 nM
11,"Cc1cc(CN(C(C)c2ccc(Cl)c(F)c2)[C@H]2C[C@@H](C(=O)O)C2)ccc1OCCN1C(=O)CCC1=O (stereo partly drawn) [Example 125, cis-3-([1-(4-Chloro-3-fluoro-phenyl)-ethyl]-{4-[2-(2,5-dioxo-pyrrolidin-1-yl)-ethoxy]-3-methyl-benzyl}-amino)-cyclobutanecarboxylic acid]",465 nM
12,"COc1cc(CN(C2CC(C(=O)O)C2)C2CCc3cc(Cl)ccc32)ccc1OCCN1C(=O)CCC1=O (centres unmarked) [Example 127, 3-((5-Chloro-indan-1-yl)-{4-[2-(2,5-dioxo-pyrrolidin-1-yl)-ethoxy]-3-methoxy-benzyl}-amino)-cyclobutanecarboxylic acid]",1090 nM
13,"Cc1cc([C@@H](C)N(Cc2ccc(OCCN3C(=O)CCC3=O)c(C)c2)[C@H]2C[C@@H](C(=O)O)C2)ccc1Cl [Example 129, cis-3-([(R)-1-(4-Chloro-3-methyl-phenyl)-ethyl]-{4-[2-(2,5-dioxo-pyrrolidin-1-yl)-ethoxy]-3-methyl-benzyl}-amino)-cyclobutanecarboxylic acid]",105 nM
14,Cc1cc([C@H](C)N(Cc2ccc(OCCN3C(=O)CCC3=O)c(C)c2)[C@H]2C[C@H](C(=O)O)C2)ccc1Cl [Example 130],5300 nM
15,"Cc1cc([C@H](C)N(Cc2ccc(OCCN3C(=O)CCC3=O)c(C)c2)[C@H]2C[C@@H](C(=O)O)C2)ccc1Cl [Example 131, cis-3-([(S)-1-(4-Chloro-3-methyl-phenyl)-ethyl]-{4-[2-(2,5-dioxo-pyrrolidin-1-yl)-ethoxy]-3-methyl-benzyl}-amino)-cyclobutanecarboxylic acid]",6500 nM
16,"Cc1cc(CN([C@H]2C[C@@H](C(=O)O)C2)[C@H](C)c2ccc(Cl)cc2)ccc1OCCN1C(=O)CCC1=O [Example 132, cis-3-([(R)-1-(4-Chloro-phenyl)-ethyl]-{4-[2-(2,5-dioxo-pyrrolidin-1-yl)-ethoxy]-3-methyl-benzyl}-amino)-cyclobutanecarboxylic acid]",170 nM
17,"Cc1cc(CN(C2CCc3cc(Cl)ccc32)[C@H]2C[C@@H](C(=O)O)C2)ccc1OCCN1C(=O)CCC1=O (stereo partly drawn) [Example 133, cis-3-((5-Chloro-indan-1-yl)-{4-[2-(2,5-dioxo-pyrrolidin-1-yl)-ethoxy]-3-methyl-benzyl}-amino)-cyclobutanecarboxylic acid]",1640 nM
18,"Cc1cc(CN(C(C)c2ccc3c(c2)CCO3)[C@H]2C[C@@H](C(=O)O)C2)ccc1OCCn1c(=O)ccn(C)c1=O (stereo partly drawn) [Example 134, cis-3-([1-(2,3-Dihydro-benzofuran-5-yl)-ethyl]-{3-methyl-4-[2-(3-methyl-2,6-dioxo-3,6-dihydro-2H-pyrimidin-1-yl)-ethoxy]-benzyl}-amino)-cyclobutanecarboxylic acid]",240 nM
19,"Cc1cc(CN([C@H]2C[C@@H](C(=O)O)C2)[C@H](C)c2ccc(Cl)cc2)ccc1OCCn1c(=O)ccn(C)c1=O [Example 136, cis-3-([(R)-1-(4-Chloro-phenyl)-ethyl]-{3-methyl-4-[2-(3-methyl-2,6-dioxo-3,6-dihydro-2H-pyrimidin-1-yl)-ethoxy]-benzyl}-amino)-cyclobutanecarboxylic acid]",347 nM
20,"COc1cc(CN(C(C)c2ccc(Cl)c(Cl)c2)[C@H]2C[C@@H](C(=O)O)C2)ccc1OCCN1C(=O)CCC1=O (stereo partly drawn) [Example 137, cis-3-([1-(3,4-Dichloro-phenyl)-ethyl]-{4-[2-(2,5-dioxo-pyrrolidin-1-yl)-ethoxy]-3-methoxy-benzyl}-amino)-cyclobutanecarboxylic acid]",104 nM
21,"Cc1cc(CN(C(C)c2ccc(Cl)c(Cl)c2)[C@H]2C[C@@H](C(=O)O)C2)ccc1OCCN1C(=O)CCC1=O (stereo partly drawn) [Example 138, cis-3-([1-(3,4-Dichloro-phenyl)-ethyl]-{4-[2-(2,5-dioxo-pyrrolidin-1-yl)-ethoxy]-3-methyl-benzyl}-amino)-cyclobutanecarboxylic acid]",670 nM
22,"CCc1cc(CN(C(C)c2ccc(Cl)c(Cl)c2)[C@H]2C[C@@H](C(=O)O)C2)ccc1OCCN1C(=O)CCC1=O (stereo partly drawn) [Example 139, cis-3-([1-(3,4-Dichloro-phenyl)-ethyl]-{4-[2-(2,5-dioxo-pyrrolidin-1-yl)-ethoxy]-3-ethyl-benzyl}-amino)-cyclobutanecarboxylic acid]",1200 nM
23,"CCc1cc(CN(C(C)c2ccc(Cl)c(F)c2)[C@H]2C[C@@H](C(=O)O)C2)ccc1OCCN1C(=O)CCC1=O (stereo partly drawn) [Example 140, cis-3-([1-(4-Chloro-3-fluoro-phenyl)-ethyl]-{4-[2-(2,5-dioxo-pyrrolidin-1-yl)-ethoxy]-3-ethyl-benzyl}-amino)-cyclobutanecarboxylic acid]",260 nM
24,"CCC(c1ccc(Cl)c(Cl)c1)N(Cc1ccc(OCCN2C(=O)CCC2=O)c(OC)c1)[C@H]1C[C@@H](C(=O)O)C1 (stereo partly drawn) [Example 141, cis-3-([1-(3,4-Dichloro-phenyl)-propyl]-{4-[2-(2,5-dioxo-pyrrolidin-1-yl)-ethoxy]-3-methoxy-benzyl}-amino)-cyclobutanecarboxylic acid]",200 nM

# Same assay, conditions: read-out: % at 10 μM; at 10 μM; displacement of 125I-CXCL10
row,Structure (SMILES),inhibition at 10 µM
1,"Cc1cc(CN(C(C)c2ccc(Cl)c(F)c2)[C@H]2C[C@H](C(=O)O)C2)ccc1OCCN1C(=O)CCC1=O (stereo partly drawn) [Example 124, trans-3-([1-(4-Chloro-3-fluoro-phenyl)-ethyl]-{4-[2-(2,5-dioxo-pyrrolidin-1-yl)-ethoxy]-3-methyl-benzyl}-amino)-cyclobutanecarboxylic acid]",24%
2,"Cc1cc([C@@H](C)N(Cc2ccc(OCCN3C(=O)CCC3=O)c(C)c2)[C@H]2C[C@H](C(=O)O)C2)ccc1Cl [Example 128, trans-3-([(R)-1-(4-Chloro-3-methyl-phenyl)-ethyl]-{4-[2-(2,5-dioxo-pyrrolidin-1-yl)-ethoxy]-3-methyl-benzyl}-amino)-cyclobutanecarboxylic acid]",37%
